Results taken from patent US9302991B2, “Arylamide derivatives as TTX-S blockers” (RaQualia Pharma Inc., priority 2010, dated 2016).

molecular target: T1, human Nav1.3 channels (Homo sapiens, UniProt Q9NY46); assay: FRET assay, human Nav1.3 (EFS on FDSS); type: cell-based; conditions: HEK293 cells expressing human Nav1.3, read-out: IC50 against Nav1.3
T1 construct: expressed in transfected cells; host or cells: HEK293
Procedure: The inhibitory activities of compounds against voltage gated sodium channels are determined by methodology well known in the art.
The ability of the aryl substituted carboxamide derivatives of the formula (I) to inhibit the NaV1.3, Nav1.7 and Nav1.5 channels is measured by Fluorescence Resonance Energy Transfer (FRET) assay and electrophysiology assay described below.
This screen is used to determine the effects of compounds on human Nav1.3, human Nav1.7, and human Nav1.5 channels, utilising electrical field stimulation (EFS) system in 96-well plate format on FDSS (Hamamatsu Photonics) platform. The change of membrane potential is monitored with FRET dye pair, oxonol (DiSBAC2(3)) and coumarin (CC2-DMPE).
Each HEK293 cells expressing human Nav1.3 channels and HEK293 cells expressing human Nav1.5 channels are grown in T225 flasks, in a 5% CO2 humidified incubator to about 80% confluence. Media composition consists of Dulbecco's Modified Eagle Medium (high glucose), 10% FCS, 100 units/mL Penicillin, 100 microgram/mL Streptomycin and 500 microgram/mL Geneticine.
Protocol: • Seed each cell lines (1×10^5 cells/well) into poly-D-lysine coated 96-well plates prior to experimentation. • Incubate at 37° C. in 5% CO2 for 24 hours. • Wash each well with assay buffer (140 mM NaCl, 4.5 mM KCl, 10 mM D-Glucose, 2 mM CaCl2, 1 mM MgCl2, 10 mM HEPES, pH 7.4 adjusted with NaOH) twice. • Add 1st loading solution containing 10 microM CC2-DMPE and 0.06% Pluronic F-127 in assay buffer. • Incubate the plate at room temperature in dark for 1 hour. • Remove 1st loading solution and added 2nd loading solution containing 15 microM DiSBAC2(3), 0.555 mM VABSC-1 and 0.004% Pluronic F-127 in assay buffer. • Place the plate under the dark at room temperature for 25 minutes. • Add compound solutions into the assay plate. • Set the assay plate in FDSS and placed an EFS device on the plate. • Measure EFS-induced fluorescent response by FDSS.
The data are analyzed and reported as normalized ratios of intensities measured at […]. The process of calculating these ratios is performed as follows:
This analysis is performed using a computerized specific program designed for FDSS generated data. Fluorescence ratio values are plotted using XLfit to determine an IC50 value for each compound.

T1 sequence (Q9NY46 whole entry): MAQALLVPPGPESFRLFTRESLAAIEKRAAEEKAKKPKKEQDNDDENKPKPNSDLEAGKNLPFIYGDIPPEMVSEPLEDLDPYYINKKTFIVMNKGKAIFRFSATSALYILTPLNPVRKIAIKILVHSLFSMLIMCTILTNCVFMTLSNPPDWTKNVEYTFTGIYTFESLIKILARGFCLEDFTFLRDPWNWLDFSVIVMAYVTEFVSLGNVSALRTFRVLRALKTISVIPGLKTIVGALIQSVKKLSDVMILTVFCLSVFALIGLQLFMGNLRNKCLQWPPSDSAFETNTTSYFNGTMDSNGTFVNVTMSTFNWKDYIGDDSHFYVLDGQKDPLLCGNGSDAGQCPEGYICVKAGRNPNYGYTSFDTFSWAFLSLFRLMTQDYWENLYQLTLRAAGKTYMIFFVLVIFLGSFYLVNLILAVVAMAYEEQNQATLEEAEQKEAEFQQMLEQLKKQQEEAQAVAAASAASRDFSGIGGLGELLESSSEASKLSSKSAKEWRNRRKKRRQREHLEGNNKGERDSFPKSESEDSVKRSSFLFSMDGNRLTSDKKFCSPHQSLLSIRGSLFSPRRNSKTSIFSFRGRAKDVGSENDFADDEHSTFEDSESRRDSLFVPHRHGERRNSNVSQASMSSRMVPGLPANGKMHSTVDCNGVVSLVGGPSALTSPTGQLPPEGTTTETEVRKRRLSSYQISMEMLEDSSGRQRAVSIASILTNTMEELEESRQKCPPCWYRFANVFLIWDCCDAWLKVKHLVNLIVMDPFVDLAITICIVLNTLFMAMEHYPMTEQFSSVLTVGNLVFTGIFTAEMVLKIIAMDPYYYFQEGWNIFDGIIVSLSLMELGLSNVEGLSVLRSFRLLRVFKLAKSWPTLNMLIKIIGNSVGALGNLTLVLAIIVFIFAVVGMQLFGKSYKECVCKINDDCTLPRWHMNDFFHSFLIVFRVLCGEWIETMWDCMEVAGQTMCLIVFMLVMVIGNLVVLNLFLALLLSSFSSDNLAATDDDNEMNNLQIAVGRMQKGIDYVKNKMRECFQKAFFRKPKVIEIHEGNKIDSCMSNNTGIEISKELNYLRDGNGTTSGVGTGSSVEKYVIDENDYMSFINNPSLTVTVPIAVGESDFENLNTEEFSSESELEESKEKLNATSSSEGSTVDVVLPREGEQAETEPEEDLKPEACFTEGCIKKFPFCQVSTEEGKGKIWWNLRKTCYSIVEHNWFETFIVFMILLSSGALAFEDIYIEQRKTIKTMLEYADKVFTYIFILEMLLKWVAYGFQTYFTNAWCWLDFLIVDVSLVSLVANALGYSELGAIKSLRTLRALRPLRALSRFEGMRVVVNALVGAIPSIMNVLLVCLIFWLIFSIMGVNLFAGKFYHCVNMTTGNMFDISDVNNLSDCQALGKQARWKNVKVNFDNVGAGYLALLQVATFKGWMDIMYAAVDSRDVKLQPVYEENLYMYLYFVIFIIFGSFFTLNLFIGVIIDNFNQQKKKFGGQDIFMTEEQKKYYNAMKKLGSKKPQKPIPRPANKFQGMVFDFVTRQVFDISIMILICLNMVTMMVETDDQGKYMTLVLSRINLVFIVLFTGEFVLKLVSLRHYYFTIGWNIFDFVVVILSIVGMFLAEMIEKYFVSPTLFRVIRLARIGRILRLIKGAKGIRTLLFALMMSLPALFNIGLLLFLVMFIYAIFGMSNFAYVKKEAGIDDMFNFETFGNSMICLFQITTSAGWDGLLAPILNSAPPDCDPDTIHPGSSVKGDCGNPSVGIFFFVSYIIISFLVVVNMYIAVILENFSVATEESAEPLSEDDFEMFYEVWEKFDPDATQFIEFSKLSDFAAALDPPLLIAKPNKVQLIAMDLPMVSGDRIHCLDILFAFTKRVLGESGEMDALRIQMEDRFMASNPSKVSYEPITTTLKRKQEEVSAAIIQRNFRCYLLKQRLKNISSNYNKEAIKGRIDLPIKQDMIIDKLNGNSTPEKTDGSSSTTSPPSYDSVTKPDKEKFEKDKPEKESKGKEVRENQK

IC50 [nM] | Compound
< 1000 | CC(C)C(=O)Nc1cc(C(=O)NC(C)c2ccc(OCC(F)(F)F)nc2)ccn1 (single isomer, unassigned) [Example 8, 2-isobutyramido-N-(1-(6-(2,2,2-trifluoroethoxy)pyridin-3-yl)ethyl)isonicotinamide]
< 1000 | Cc1cc(C(=O)NC(C)c2ccc(OCC(F)(F)F)nc2)cc(NC(=O)C(C)C)n1 (single isomer, unassigned) [Example 62, 2-isobutyramido-6-methyl-N-(1-(6-(2,2,2-trifluoroethoxy)pyridin-3-yl)ethyl)isonicotinamide]
< 1000 | CCC(=O)Nc1cc(C(=O)NC(C)c2cnc(OCC(F)(F)F)c(Cl)c2)ccn1 (single isomer, unassigned) [Example 69, N-(1-(5-chloro-6-(2,2,2-trifluoroethoxy)pyridin-3-yl)ethyl)-2-propionamidoisonicotinamide]
< 1000 | CC(=O)Nc1cc(C(=O)NC(C)c2cnc(OCC(F)(F)F)c(C)c2)ccn1 (single isomer, unassigned) [Example 85, 2-acetamido-N-(1-(5-methyl-6-(2,2,2-trifluoroethoxy)pyridin-3-yl)ethyl)isonicotinamide]
< 1000 | CCC(=O)Nc1cc(C(=O)NC(C)c2cnc(OCC(F)(F)F)c(C)c2)ccn1 (single isomer, unassigned) [Example 87, N-(1-(5-methyl-6-(2,2,2-trifluoroethoxy)pyridin-3-yl)ethyl)-2-propionamidoisonicotinamide]
< 1000 | CCc1cc(CNC(=O)c2cc(C)nc(NC(=O)C3CC3)n2)cnc1OCC(F)(F)F [Example 718, 2-(cyclopropanecarboxamido)-N-((5-ethyl-6-(2,2,2-trifluoroethoxy)pyridin-3-yl)methyl)-6-methylpyrimidine-4-carboxamide]
< 1000 | CCC(=O)Nc1cc(C(=O)NCc2ccc(OCC(C)(F)F)nc2)ccn1 [Example 719, N-((6-(2,2-difluoropropoxy)pyridin-3-yl)methyl)-2-propionamidoisonicotinamide]
< 1000 | CCC(=O)Nc1cc(C(=O)NCc2ccc(OCC(C)(F)F)nc2)cc(C)n1 [Example 721, N-((6-(2,2-difluoropropoxy)pyridin-3-yl)methyl)-2-methyl-6-propionamidoisonicotinamide]
< 1000 | CC(=O)Nc1cc(C(=O)NCc2cnc(OCC(F)(F)F)c(C(F)(F)F)c2)cc(C)n1 [Example 727, 2-acetamido-6-methyl-N-((6-(2,2,2-trifluoroethoxy)-5-(trifluoromethyl)pyridin-3-yl)methyl)isonicotinamide]
< 1000 | CC(=O)Nc1cc(C(=O)NCc2cccc(C(F)(F)F)c2F)cc(C)n1 [Example 729, 2-acetamido-N-(2-fluoro-3-(trifluoromethyl)benzyl)-6-methylisonicotinamide]
< 1000 | CC(C)C(=O)Nc1cc(C(=O)NCc2cccc(C(F)(F)F)c2F)ccn1 [Example 730, N-(2-fluoro-3-(trifluoromethyl)benzyl)-2-isobutyramidoisonicotinamide]
< 1000 | O=C(NCc1cc(C(F)(F)F)cc(C(F)(F)F)c1)c1ccnc(NC(=O)C2CC2)n1 [Example 736, N-(3,5-bis(trifluoromethyl)benzyl)-2-(cyclopropanecarboxamido)pyrimidine-4-carboxamide]
< 1000 | CCC(=O)Nc1cc(C(=O)NCc2cnc(OCC(F)F)c(C)c2)ccn1 [Example 738, N-((6-(2,2-difluoroethoxy)-5-methylpyridin-3-yl)methyl)-2-propionamidoisonicotinamide]
< 1000 | Cc1cc(CNC(=O)c2ccnc(NC(=O)C3CC3)c2)cnc1OCC(F)F [Example 739, 2-(cyclopropanecarboxamido)-N-((6-(2,2-difluoroethoxy)-5-methylpyridin-3-yl)methyl)isonicotinamide]
< 1000 | CCC(=O)Nc1cc(C(=O)NCc2cnc(OCC(F)F)c(C)c2)cc(C)n1 [Example 740, N-((6-(2,2-difluoroethoxy)-5-methylpyridin-3-yl)methyl)-2-methyl-6-propionamidoisonicotinamide]
< 1000 | CC(=O)Nc1cc(C(=O)NCc2cnc(OCC(F)F)c(C)c2)cc(C)n1 [Example 742, 2-acetamido-N-((6-(2,2-difluoroethoxy)-5-methylpyridin-3-yl)methyl)-6-methylisonicotinamide]

IC50 [nM] | Compound
< 1000 | Cc1cc(C(=O)NCc2cnc(OCC(F)F)c(C)c2)cc(NC(=O)C(C)C)n1 [Example 743, N-((6-(2,2-difluoroethoxy)-5-methylpyridin-3-yl)methyl)-2-isobutyramido-6-methylisonicotinamide]
< 1000 | CC(=O)Nc1cc(C(=O)NCc2cccc(OC(F)(F)F)c2F)ccn1 [Example 746, 2-acetamido-N-(2-fluoro-3-(trifluoromethoxy)benzyl)isonicotinamide]
< 1000 | CCC(=O)Nc1cc(C(=O)NCc2cccc(OC(F)(F)F)c2F)ccn1 [Example 747, N-(2-fluoro-3-(trifluoromethoxy)benzyl)-2-propionamidoisonicotinamide]
< 1000 | O=C(NCc1cccc(OC(F)(F)F)c1F)c1ccnc(NC(=O)C2CC2)c1 [Example 748, 2-(cyclopropanecarboxamido)-N-(2-fluoro-3-(trifluoromethoxy)benzyl)isonicotinamide]
< 1000 | CCC(=O)Nc1cc(C(=O)NCc2cccc(OC(F)(F)F)c2F)cc(C)n1 [Example 749, N-(2-fluoro-3-(trifluoromethoxy)benzyl)-2-methyl-6-propionamidoisonicotinamide]
< 1000 | CC(C)C(=O)Nc1cc(C(=O)NCc2cccc(OC(F)(F)F)c2F)ccn1 [Example 750, N-(2-fluoro-3-(trifluoromethoxy)benzyl)-2-isobutyramidoisonicotinamide]
< 1000 | Cc1cc(C(=O)NCc2cccc(OC(F)(F)F)c2F)cc(NC(=O)C(C)C)n1 [Example 752, N-(2-fluoro-3-(trifluoromethoxy)benzyl)-2-isobutyramido-6-methylisonicotinamide]
< 1000 | Cc1cc(CNC(=O)c2ccnc(NC(=O)C3CC3)n2)ccc1OCC(F)(F)F [Example 779, 2-(cyclopropanecarboxamido)-N-(3-methyl-4-(2,2,2-trifluoroethoxy)benzyl)pyrimidine-4-carboxamide]
< 1000 | O=C(NCc1cnc(OCC(F)F)c(C2CC2)c1)c1ccnc(NC(=O)C2CC2)n1 [Example 918, 2-(cyclopropanecarboxamido)-N-((5-cyclopropyl-6-(2,2-difluoroethoxy)pyridin-3-yl)methyl)pyrimidine-4-carboxamide]
< 1000 | Cc1cc(C(=O)NCc2cnc(OCC(F)(F)F)c(Cl)c2)cc(NC(=O)CC2CC2)n1 [Example 956, N-((5-chloro-6-(2,2,2-trifluoroethoxy)pyridin-3-yl)methyl)-2-(2-cyclopropylacetamido)-6-methylisonicotinamide]
< 1000 | Cc1cc(C(=O)NCc2cnc(OCC(F)(F)F)cc2C)cc(NC(=O)CC2CC2)n1 [Example 958, 2-(2-cyclopropylacetamido)-6-methyl-N-((4-methyl-6-(2,2,2-trifluoroethoxy)pyridin-3-yl)methyl)isonicotinamide]
< 1000 | COc1nc(OCC(F)(F)F)ccc1CNC(=O)c1cc(C)nc(NC(=O)CC2CC2)c1 [Example 960, 2-(2-cyclopropylacetamido)-N-((2-methoxy-6-(2,2,2-trifluoroethoxy)pyridin-3-yl)methyl)-6-methylisonicotinamide]
< 1000 | Cc1cc(C(=O)NCc2cccc(C(F)(F)F)c2)cc(NC(=O)CC2CC2)n1 [Example 961, 2-(2-cyclopropylacetamido)-6-methyl-N-(3-(trifluoromethyl)benzyl)isonicotinamide]
< 1000 | CC(=O)Nc1cc(C(=O)NCc2ccc(OC(F)(F)F)c(Cl)c2)ccn1 [Example 967, 2-acetamido-N-(3-chloro-4-(trifluoromethoxy)benzyl)isonicotinamide]
< 1000 | CCC(=O)Nc1cc(C(=O)NCc2ccc(OC(F)(F)F)c(Cl)c2)ccn1 [Example 968, N-(3-chloro-4-(trifluoromethoxy)benzyl)-2-propionamidoisonicotinamide]

molecular target: T2, human Nav1.7 channels (Homo sapiens, UniProt Q15858); assay: FRET assay, human Nav1.7 (EFS on FDSS); type: cell-based; conditions: CHO cells expressing human Nav1.7, read-out: IC50 against Nav1.7
T2 construct: expressed in transfected cells; host or cells: CHO
T2 sequence (Q15858 whole entry): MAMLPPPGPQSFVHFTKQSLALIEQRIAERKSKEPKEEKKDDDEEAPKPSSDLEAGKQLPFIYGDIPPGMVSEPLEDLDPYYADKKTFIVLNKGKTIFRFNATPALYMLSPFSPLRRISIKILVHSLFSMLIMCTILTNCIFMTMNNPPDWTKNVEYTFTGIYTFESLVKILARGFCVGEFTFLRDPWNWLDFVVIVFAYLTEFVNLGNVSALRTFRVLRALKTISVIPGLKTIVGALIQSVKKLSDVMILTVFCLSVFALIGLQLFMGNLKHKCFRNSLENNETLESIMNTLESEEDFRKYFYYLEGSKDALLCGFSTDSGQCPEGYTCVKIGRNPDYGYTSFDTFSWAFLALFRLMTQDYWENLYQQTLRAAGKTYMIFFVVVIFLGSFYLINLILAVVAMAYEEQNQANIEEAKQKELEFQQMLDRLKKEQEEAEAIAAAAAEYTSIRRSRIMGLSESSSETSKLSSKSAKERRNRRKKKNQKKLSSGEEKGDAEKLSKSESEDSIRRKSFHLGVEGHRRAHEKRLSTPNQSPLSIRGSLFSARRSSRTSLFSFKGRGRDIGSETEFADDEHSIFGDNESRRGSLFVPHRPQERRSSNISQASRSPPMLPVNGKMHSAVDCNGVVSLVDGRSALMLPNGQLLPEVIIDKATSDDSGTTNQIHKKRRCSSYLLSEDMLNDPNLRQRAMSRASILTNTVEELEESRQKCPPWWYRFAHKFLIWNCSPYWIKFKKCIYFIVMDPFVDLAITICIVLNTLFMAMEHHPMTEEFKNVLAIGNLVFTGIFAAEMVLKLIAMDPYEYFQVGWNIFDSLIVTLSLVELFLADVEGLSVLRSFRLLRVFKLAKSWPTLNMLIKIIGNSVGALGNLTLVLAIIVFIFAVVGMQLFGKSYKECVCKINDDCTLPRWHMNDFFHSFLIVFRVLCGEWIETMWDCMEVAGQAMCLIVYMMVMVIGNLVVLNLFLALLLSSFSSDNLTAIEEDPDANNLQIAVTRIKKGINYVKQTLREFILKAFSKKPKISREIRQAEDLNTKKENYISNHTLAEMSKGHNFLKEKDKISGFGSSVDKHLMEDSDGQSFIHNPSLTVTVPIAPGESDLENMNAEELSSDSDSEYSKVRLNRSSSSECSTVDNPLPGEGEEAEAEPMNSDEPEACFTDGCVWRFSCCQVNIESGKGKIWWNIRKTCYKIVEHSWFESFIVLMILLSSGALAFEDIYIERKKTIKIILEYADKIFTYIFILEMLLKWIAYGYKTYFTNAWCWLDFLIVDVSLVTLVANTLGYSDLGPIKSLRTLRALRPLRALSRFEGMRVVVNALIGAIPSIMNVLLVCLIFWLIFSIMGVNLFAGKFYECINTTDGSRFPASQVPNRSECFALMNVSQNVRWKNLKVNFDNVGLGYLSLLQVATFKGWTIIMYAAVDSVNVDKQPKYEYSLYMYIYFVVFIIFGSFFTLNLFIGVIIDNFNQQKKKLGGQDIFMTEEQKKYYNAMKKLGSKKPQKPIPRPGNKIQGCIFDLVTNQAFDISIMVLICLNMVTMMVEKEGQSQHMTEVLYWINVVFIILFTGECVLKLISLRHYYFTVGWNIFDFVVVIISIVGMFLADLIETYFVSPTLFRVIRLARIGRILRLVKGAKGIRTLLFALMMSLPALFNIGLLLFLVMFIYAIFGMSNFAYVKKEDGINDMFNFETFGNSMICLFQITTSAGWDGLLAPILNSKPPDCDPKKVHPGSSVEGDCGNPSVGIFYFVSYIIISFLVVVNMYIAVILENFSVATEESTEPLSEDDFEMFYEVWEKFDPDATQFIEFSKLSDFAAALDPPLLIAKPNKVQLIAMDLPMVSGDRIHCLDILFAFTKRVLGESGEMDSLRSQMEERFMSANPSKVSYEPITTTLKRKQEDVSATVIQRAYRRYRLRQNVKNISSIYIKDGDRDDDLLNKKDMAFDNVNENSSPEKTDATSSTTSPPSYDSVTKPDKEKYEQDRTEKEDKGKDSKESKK
Procedure, shortened: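 CHO cells stably expressing the channel, loaded with CC2-DMPE (10 µM) then DiSBAC2(3) (15 µM) plus VABSC-1, in HEPES-buffered saline pH 7.4 at room temperature. Electrical field stimulation on FDSS; FRET ratio at 440 nm fitted for IC50.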

IC50 [nM] | Compound
< 1000 | CC(C)C(=O)Nc1cc(C(=O)NC(C)c2ccc(OCC(F)(F)F)nc2)ccn1 (single isomer, unassigned) [Example 8, 2-isobutyramido-N-(1-(6-(2,2,2-trifluoroethoxy)pyridin-3-yl)ethyl)isonicotinamide]
< 1000 | Cc1cc(C(=O)NC(C)c2ccc(OCC(F)(F)F)nc2)cc(NC(=O)C(C)C)n1 (single isomer, unassigned) [Example 62, 2-isobutyramido-6-methyl-N-(1-(6-(2,2,2-trifluoroethoxy)pyridin-3-yl)ethyl)isonicotinamide]
< 1000 | CCC(=O)Nc1cc(C(=O)NC(C)c2cnc(OCC(F)(F)F)c(Cl)c2)ccn1 (single isomer, unassigned) [Example 69, N-(1-(5-chloro-6-(2,2,2-trifluoroethoxy)pyridin-3-yl)ethyl)-2-propionamidoisonicotinamide]
< 1000 | CC(=O)Nc1cc(C(=O)NC(C)c2cnc(OCC(F)(F)F)c(C)c2)ccn1 (single isomer, unassigned) [Example 85, 2-acetamido-N-(1-(5-methyl-6-(2,2,2-trifluoroethoxy)pyridin-3-yl)ethyl)isonicotinamide]
< 1000 | CCC(=O)Nc1cc(C(=O)NC(C)c2cnc(OCC(F)(F)F)c(C)c2)ccn1 (single isomer, unassigned) [Example 87, N-(1-(5-methyl-6-(2,2,2-trifluoroethoxy)pyridin-3-yl)ethyl)-2-propionamidoisonicotinamide]
